Reference: patent publication US20230346827A1 (priority 2020, published 2023)

System: rats subjected to sTBI
Assay: sTBI rats, LMW-DS 1, 5, 15 mg/kg s.c. 30 min post-TBI: HPLC of brain energy metabolites, antioxidants, oxidative/nitrosative stress biomarkers (Example 4)
Format: in vivo, rat
Conditions: 1 mg/kg
Procedure: Male Wistar rats (n=160) of 300-350 g body weight were used in this study. They were fed with standard laboratory diet and water ad libitum in a controlled environment.
As the accepted anesthetic mixture, animals received 35 mg/kg b.w. ketamine and 0.25 mg/kg body weight midazolam by intramuscular injection. Diffuse sTBI was induced according to the “weight drop” impact acceleration model set up by Marmarou et al. J. Neurosurg. 1994, 80: 291-300. This model causes diffuse axonal injury and it is able to reproduce the physical and mechanical characteristics of the diffuse TBI in humans.
Severe TBI was induced by dropping a 450 g weight from 2 meters height onto the rat head protected by a helmet (metal disk previously fixed on the skull using dental cement) in order to uniformly distribute the mechanical force to the brain. Rats were placed prone on a bed of specific polyurethane foam inserted in a special container; this foam dissipates the major part of the potential energy (deriving from the mechanical forces) and prevents any rebound of the animal after the impact that could produce spinal damages.
After 2 or 7 days from TBI induction, rats were anesthetized again and then immediately sacrificed. These time points are coincident with the worst biochemical derangement (2 days) or, in the case of a mildly injured brain, with a full metabolic recovery (7 days).
The drug treatment consisted in a subcutaneous injection of 0.5 ml of LMW-DS (ILB®, Tikomed, Viken, Sweden, WO 2016/076780) and administered at 3 different concentrations (1, 5 and 15 mg/kg body weight), according to the schematic protocol described below. Sham-operated animals underwent the same procedure of anesthesia but TBI and were used as the control group.
(§1) Rats subjected to sTBI and receiving a single administration of LMW-DS after 30 minutes post-TBI, with sacrifice at 2 days post-TBI. Animals were divided in the following subgroups: • 1. 12 animals subjected to sTBI and treated with 1 mg/kg b.w. LMW-DS • 2. 12 animals subjected to sTBI and treated with 5 mg/kg b.w. LMW-DS • 3. 12 animals subjected to sTBI and treated with 15 mg/kg b.w. LMW-DS
as §1, with “at 7” for “at 2”
Rats (n = 12) subjected to sTBI and receiving repeated administrations of the maximal dose of LMW-DS (15 mg/kg b.w.) after 30 minutes, 3 days and 5 days post-TBI, with sacrifice at 7 days post-TBI. Four additional rats were used for the histo-morphological studies. Total rats in this group: n=16
To minimize metabolite loss, an in vivo craniectomy was performed in all animals during anesthesia. The rat skull was carefully removed, the brain was exposed, sharply cut along the sagittal fissure and the two hemispheres were separated. The hemispheres dedicated to biochemical analyses were freeze-clamped by aluminum tongues pre-cooled in liquid nitrogen and then immersed in liquid nitrogen. The freeze-clamping procedure was introduced to accelerate freezing of the tissue, thus minimizing potential metabolite loss.
Tissue homogenization for metabolite analyses was effected as described below. After the wet weight (w.w.) determination, the frozen hemispheres were placed into 7 ml of ice-cold, nitrogen-saturated, precipitating solution (1:10 w/v) composed by CH3CN + 10 mM KH2PO4, pH 7.40, (3:1; v:v), and the homogenization was performed using an Ultra-Turrax homogenizer set at 24,000 rpm/min (Janke & Kunkel, Staufen, Germany). […]

sodium salt of dextran sulfate [LMW-DS] showed an ADENOSINE (2 d post-sTBI) of 68.91 ± 16.50 nmol/g w.w, an ADP (2 d post-sTBI) of 333.90 ± 28.72 nmol/g w.w and an ADP-Ribose (2 d post-sTBI) of 25.69 ± 5.16 nmol/g w.w. For the same substance, the AMP (2 d post-sTBI) was 62.04 ± 7.46 nmol/g w.w, the “ASCORBIC ACID” value (2 d post-sTBI) was 2567.35 ± 147.76 nmol/g w.w and the ATP (2 d post-sTBI) was 1696.96 ± 99.43 nmol/g w.w. The Acetyl-CoA (2 d post-sTBI) was 27.74 ± 3.23 nmol/g w.w, the CDP choline (2 d post-sTBI) was 8.23 ± 1.22 nmol/g w.w and the CMP (2 d post-sTBI) was 29.39 ± 6.00 nmol/g w.w. It also gave a CREATININE (2 d post-sTBI) of 17.66 ± 3.29 nmol/g w.w, a CTP (2 d post-sTBI) of 33.01 ± 7.63 nmol/g w.w and a CYTIDINE (2 d post-sTBI) of 13.79 ± 2.49 nmol/g w.w. It also gave a CYTOSINE (2 d post-sTBI) of 13.47 ± 1.65 nmol/g w.w, a CoA-SH (2 d post-sTBI) of 9.42 ± 1.04 nmol/g w.w and a GDP (2 d post-sTBI) of 189.85 ± 26.23 nmol/g w.w. The “GDP Glucose” value (2 d post-sTBI) was 65.66 ± 41.61 nmol/g w.w, the GMP (2 d post-sTBI) was 205.06 ± 25.74 nmol/g w.w and the GSH (2 d post-sTBI) was 2337.06 ± 340.81 nmol/g w.w. It also gave a GTP (2 d post-sTBI) of 169.98 ± 17.93 nmol/g w.w, a GUANINE (2 d post-sTBI) of 1.62 ± 0.41 nmol/g w.w and a GUANOSINE (2 d post-sTBI) of 16.46 ± 2.73 nmol/g w.w. It also gave an HYPOXANTHINE (2 d post-sTBI) of 4.02 ± 0.66 nmol/g w.w, an IMP (2 d post-sTBI) of 45.97 ± 8.65 nmol/g w.w and an INOSINE (2 d post-sTBI) of 113.85 ± 14.84 nmol/g w.w. The MDA (2 d post-sTBI) was 44.00 ± 7.17 nmol/g w.w, the Malonyl-CoA (2 d post-sTBI) was 19.06 ± 4.04 nmol/g w.w and the NADH (2 d post-sTBI) was 9.42 ± 1.38 nmol/g w.w. The NADPH (2 d post-sTBI) was 13.07 ± 1.09 nmol/g w.w, the “NADP^+” value (2 d post-sTBI) was 11.79 ± 2.70 nmol/g w.w and the “NAD^+” value (2 d post-sTBI) was 325.87 ± 55.47 nmol/g w.w. For the same substance, the NO2 (2 d post-sTBI) was 158.36 ± 19.08 nmol/g w.w, the NO3 (2 d post-sTBI) was 99.16 ± 21.58 nmol/g w.w and the UDP (2 d post-sTBI) was 83.06 ± 8.52 nmol/g w.w. For the same substance, the UDP-Gal (2 d post-sTBI) was 118.50 ± 9.89 nmol/g w.w, the “UDP-GalNac” value (2 d post-sTBI) was 21.24 ± 3.13 nmol/g w.w and the UDP-Glc (2 d post-sTBI) was 45.14 ± 6.68 nmol/g w.w. It also gave a UDP-GlcNac (2 d post-sTBI) of 96.62 ± 8.80 nmol/g w.w, a UMP (2 d post-sTBI) of 148.04 ± 20.45 nmol/g w.w and a URACIL (2 d post-sTBI) of 17.18 ± 3.36 nmol/g w.w. The “URIC ACID” value (2 d post-sTBI) was 52.42 ± 10.75 nmol/g w.w, the URIDINE (2 d post-sTBI) was 79.93 ± 14.07 nmol/g w.w and the UTP (2 d post-sTBI) was 104.07 ± 16.34 nmol/g w.w. The XANTHINE (2 d post-sTBI) was 13.79 ± 1.43 nmol/g w.w, the β-PSEUDOURIDINE (2 d post-sTBI) was 11.64 ± 2.3 nmol/g w.w and the “NAD^+/NADH” value (2 d post-sTBI, adimensional ratio) was 33.91 ± 9.32. It also gave an ADENOSINE (7 d post-sTBI) of 26.08 ± 19.31 nmol/g w.w, an ADP (7 d post-sTBI) of 286.78 ± 38.19 nmol/g w.w and an ADP-Ribose (7 d post-sTBI) of 7.95 ± 1.99 nmol/g w.w. For the same substance, the AMP (7 d post-sTBI) was 43.13 ± 3.39 nmol/g w.w, the “ASCORBIC ACID” value (7 d post-sTBI) was 2177.22 ± 262.21 nmol/g w.w and the ATP (7 d post-sTBI) was 1792.01 ± 144.16 nmol/g w.w. It also gave an Acetyl-CoA (7 d post-sTBI) of 27.05 ± 4.61 nmol/g w.w, a CDP choline (7 d post-sTBI) of 6.26 ± 2.01 nmol/g w.w and a CMP (7 d post-sTBI) of 25.41 ± 10.81 nmol/g w.w. The CREATININE (7 d post-sTBI) was 6.57 ± 1.16 nmol/g w.w, the CTP (7 d post-sTBI) was 81.75 ± 31.55 nmol/g w.w and the CYTIDINE (7 d post-sTBI) was 29.67 ± 10.44 nmol/g w.w. It also gave a CYTOSINE (7 d post-sTBI) of 16.03 ± 3.44 nmol/g w.w, a CoA-SH (7 d post-sTBI) of 38.50 ± 4.94 nmol/g w.w and a GDP (7 d post-sTBI) of 121.72 ± 13.91 nmol/g w.w. The “GDP Glucose” value (7 d post-sTBI) was 112.22 ± 13.13 nmol/g w.w, the GMP (7 d post-sTBI) was 113.06 ± 53.51 nmol/g w.w and the GSH (7 d post-sTBI) was 1627.30 ± 214.51 nmol/g w.w. It also gave a GTP (7 d post-sTBI) of 438.65 ± 39.88 nmol/g w.w, a GUANINE (7 d post-sTBI) of 6.86 ± 2.92 nmol/g w.w and a GUANOSINE (7 d post-sTBI) of 19.11 ± 3.98 nmol/g w.w. It also gave an HYPOXANTHINE (7 d post-sTBI) of 16.97 ± 4.94 nmol/g w.w, an IMP (7 d post-sTBI) of 80.16 ± 20.53 nmol/g w.w and an INOSINE (7 d post-sTBI) of 124.27 ± 13.94 nmol/g w.w. The MDA (7 d post-sTBI) was 32.98 ± 5.44 nmol/g w.w, the Malonyl-CoA (7 d post-sTBI) was 5.43 ± 0.98 nmol/g w.w and the NADH (7 d post-sTBI) was 8.20 ± 1.41 nmol/g w.w. For the same substance, the NADPH (7 d post-sTBI) was 18.91 ± 4.39 nmol/g w.w, the “NADP^+” value (7 d post-sTBI) was 39.94 ± 14.65 nmol/g w.w and the “NAD^+” value (7 d post-sTBI) was 268.14 ± 37.97 nmol/g w.w. The NO2 (7 d post-sTBI) was 93.04 ± 20.16 nmol/g w.w, the NO3 (7 d post-sTBI) was 153.62 ± 26.24 nmol/g w.w and the UDP (7 d post-sTBI) was 38.59 ± 5.43 nmol/g w.w. It also gave a UDP-Gal (7 d post-sTBI) of 130.20 ± 8.95 nmol/g w.w and a UDP-GalNac (7 d post-sTBI) of 15.85 ± 4.54 nmol/g w.w.
